Reference: patent US9617258B2, “Pyrrolo[2,3-d]pyrimidinyl, pyrrolo[2,3-b]pyrazinyl and pyrrolo[2,3-d]pyridinyl acrylamides” (Pfizer Inc., priority 2013, dated 2017)

Experiment: Stability of JAK3 covalent inhibitors in human whole blood;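 further: parent compound remaining over incubation time quantified by LC-MS/MS as peak area ratio against an internal standard, using pooled K2-EDTA blood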
Assay type: in vitro ADME
Details: both sexes, whole blood, 37° C., read-out: Human blood stability t1/2
Text: Stability of JAK3 Covalent Inhibitors in Rat and Human Whole Blood
Rat blood was collected from 3 male Sprague-Dawley rats (200-250 g, Charles River Laboratories) and pooled for each study. Human blood was collected from one male and one female healthy subjects at the Occupational Health & Wellness Center at Pfizer, Groton, CT and pooled for each study. Both rat and human blood was collected freshly into K2-EDTA tubes and kept on ice. An aliquot of the blood was transferred to microtubes and pre-warmed for 10 min at 37° C. using a heat block. […] An aliquot of the incubation mixture was removed at designated time points during the course of the incubation, mixed with an aliquot of acetonitrile containing an internal standard, vortexed and centrifuged. The resulting supernatants were removed and subjected to LC-MS/MS analyses to determine parent compound concentrations. Peak area ratios of the parent compound vs the internal standard were used to determine the % of parent compound remaining vs incubation time.

`C=CC(=O)N1CCC[C@](C)(Nc2ncnc3[nH]ccc23)C1` [Example 70, (S)-1-(3-((7H-Pyrrolo[2,3-d]pyrimidin-4-yl)amino)-3-methylpiperidin-1-yl)prop-2-en-1-one] and `C=CC(=O)N1CCCC(C)(Nc2ncnc3[nH]ccc23)C1` (stereo not shown) [Example 71, 1-(3-((7H-Pyrrolo[2,3-d]pyrimidin-4-yl)amino)-3-methylpiperidin-1-yl)prop-2-en-1-one] are within 1.5-fold of each other in half-life at 1 μM: 5.72 h for the first, 3.82 h for the second.

`C=CC(=O)N1CC[C@@H]2CCN(c3nc(N)nc4[nH]ccc34)[C@@H]2C1` [Example 73, 1-[(3aS,7aS)-1-(2-Amino-7H-pyrrolo[2,3-d]pyrimidin-4-yl)octahydro-6H-pyrrolo[2,3-c]pyridin-6-yl]prop-2-en-1-one] and `C=CC(=O)N1CC[C@@H]2OCCN(c3ncnc4[nH]ccc34)[C@@H]2C1` [Example 90, 1-[(4aR,8aS)-4-(7H-Pyrrolo[2,3-d]pyrimidin-4-yl)hexahydro-2H-pyrido[4,3-b][1,4]oxazin-6(5H)-yl]prop-2-en-1-one] are within 1.5-fold of each other in half-life at 1 μM: 3.25 h for the first, 2.8 h for the second.

Going from `C=CC(=O)N1C[C@H](C)C[C@@H](Nc2ncnc3[nH]ccc23)C1` [Example 74, 1-[(3R,5R)-3-Methyl-5-(7H-pyrrolo[2,3-d]pyrimidin-4-ylamino)piperidin-1-yl]prop-2-en-1-one] to `C=CC(=O)N1C[C@@H](C)C[C@H](Nc2ncnc3[nH]ccc23)C1` [Example 75, 1-((3S,5S)-3-((7H-Pyrrolo[2,3-d]pyrimidin-4-yl)amino)-5-methylpiperidin-1-yl)prop-2-en-1-one], the half-life at 1 μM rises from 1.72 h to greater than 6 h.

`C=CC(=O)N1C[C@H](Nc2ncnc3[nH]ccc23)C[C@@H](OC)C1` [Example 77, 1-[(3R,5R)-3-Methoxy-5-(7H-pyrrolo[2,3-d]pyrimidin-4-ylamino)piperidin-1-yl]prop-2-en-1-one] and `C=CC(=O)N1C[C@H](C)C[C@H](Nc2ncnc3[nH]ccc23)C1` [Example 128, 1-[(3R,5S)-3-Methyl-5-(7H-pyrrolo[2,3-d]pyrimidin-4-ylamino)piperidin-1-yl]prop-2-en-1-one] are within 1.5-fold of each other in half-life at 1 μM: 4.2 h for the first, 5.07 h for the second.

Going from `O=C(/C=C/C(F)(F)F)N1CC[C@@H]2CCN(c3ncnc4[nH]ccc34)[C@@H]2C1` [Example 81, (2E)-4,4,4-trifluoro-1-[(3aS,7aS)-1-(7H-pyrrolo[2,3-d]pyrimidin-4-yl)octahydro-6H-pyrrolo[2,3-c]pyridin-6-yl]but-2-en-1-one] to `CN(C)C/C=C/C(=O)N1CC[C@@H]2CCN(c3ncnc4[nH]ccc34)[C@@H]2C1` [Example 82, (2E)-4-(dimethylamino)-1-[(3aS,7aS)-1-(7H-pyrrolo[2,3-d]pyrimidin-4-yl)octahydro-6H-pyrrolo[2,3-c]pyridin-6-yl]but-2-en-1-one], the half-life at 1 μM rises from 0.282 h to greater than 6 h.

Compared with `C=C(C)C(=O)N1CC[C@@H]2CCN(c3ncnc4[nH]ccc34)[C@@H]2C1` [Example 85, 2-methyl-1-[(3aS,7aS)-1-(7H-pyrrolo[2,3-d]pyrimidin-4-yl)octahydro-6H-pyrrolo[2,3-c]pyridin-6-yl]prop-2-en-1-one], `C=CC(=O)N1CC[C@@H](C)[C@H](Nc2ncnc3[nH]ccc23)C1` [Example 112, 1-[(3S,4R)-4-Methyl-3-(7H-pyrrolo[2,3-d]pyrimidin-4-ylamino)piperidin-1-yl]prop-2-en-1-one] is lower in half-life at 1 μM: greater than 6 h for the first, 2.37 h for the second.

Going from `C=CC(=O)N1C[C@H](Nc2ncnc3[nH]ccc23)C[C@@H](N(C)C)C1` [Example 88, 1-[(3R,5R)-3-(Dimethylamino)-5-(7H-pyrrolo[2,3-d]pyrimidin-4-ylamino)piperidin-1-yl]prop-2-en-1-one] to `C=CC(=O)N1C[C@@H](Nc2ncnc3[nH]ccc23)CC[C@H]1CO` [Example 117, 1-[(2S,5S)-2-(Hydroxymethyl)-5-(7H-pyrrolo[2,3-d]pyrimidin-4-ylamino)piperidin-1-yl]prop-2-en-1-one], the half-life at 1 μM rises from 1.23 h to greater than 6 h.

`C/C=C/C(=O)N1CCC[C@@H](Nc2ncnc3[nH]ccc23)C1` [Example 95, (2E)-1-[(3R)-3-(7H-pyrrolo[2,3-d]pyrimidin-4-ylamino)piperidin-1-yl]but-2-en-1-one] and `COCCc1c[nH]c2ncnc(N[C@@H]3CCCN(C(=O)/C=C/CN(C)C)C3)c12` [Example 108, (2E)-4-(dimethylamino)-1-[(3R)-3-{[5-(2-methoxyethyl)-7H-pyrrolo[2,3-d]pyrimidin-4-yl]amino}pipendin-1-yl]but-2-en-1-one] cannot be ordered by half-life at 1 μM: greater than 6 h for the first, greater than 6 h for the second.

Compared with `C=CC(=O)N1C[C@@H](O)C[C@@H](Nc2ncnc3[nH]cc(Cl)c23)C1` [Example 162, 1-{(3R,5S)-3-[(5-Chloro-7H-pyrrolo[2,3-d]pyrimidin-4-yl)amino]-5-hydroxypiperidin-1-yl}prop-2-en-1-one], `C=CC(=O)N1C[C@H](Nc2ncnc3[nH]cc(C#N)c23)CC[C@@H]1C` [Example 163, 4-{[(3R,6S)-1-Acryloyl-6-methylpiperidin-3-yl]amino}-7H-pyrrolo[2,3-d]pyrimidine-5-carbonitrile] is lower in half-life at 1 μM: greater than 6 h for the first, 4.83 h for the second.

`C=CC(=O)N1C[C@H](Nc2ccnc3[nH]cc(C#N)c23)CC[C@@H]1C` [Example 165, 4-{[(3R,6S)-1-Acryloyl-6-methylpiperidin-3-yl]amino}-1H-pyrrolo[2,3-b]pyridine-3-carbonitrile] and `C=CC(=O)N1CCC(Nc2cnc3[nH]cc(-c4ccnc(C)c4)c3n2)CC1` [Example 201, 1-(4-{[7-(2-methylpyridin-4-yl)-5H-pyrrolo[2,3-b]pyrazin-2-yl]amino}piperidin-1-yl)prop-2-en-1-one] cannot be ordered by half-life at 1 μM: greater than 5.82 h for the first, greater than 6 h for the second.

`C=CC(=O)N1CCC(Nc2cnc3[nH]cc(C(=O)NC(C)C)c3n2)CC1` [Example 168, 2-[(1-acryloylpiperidin-4-yl)amino]-N-(propan-2-yl)-5H-pyrrolo[2,3-b]pyrazine-7-carboxamide] and `C=CC(=O)N1CC[C@H](Nc2cnc3[nH]cc(C(=O)NC(C)C)c3n2)C1` [Example 171, 2-{[(3S)-1-acryloylpyrrolidin-3-yl]amino}-N-(propan-2-yl)-5H -pyrrolo[2,3-b]pyrazine-7-carboxamide] cannot be ordered by half-life at 1 μM: greater than 5.83 h for the first, greater than 6 h for the second.

First: C=CC(=O)N1CCN(c2cnc3[nH]cc(C(=O)NC(C)C)c3n2)CC1 [Example 174, 2-(4-acryloylpiperazin-1-yl)-N-(propan-2-yl)-5H-pyrrolo[2,3-b]pyrazine-7-carboxamide]
Second: C=CC(=O)N1CC2CCN(c3cnc4[nH]cc(C(=O)NC(C)C)c4n3)C2C1 (stereo not shown) [Example 178, 2-(5-acryloylhexahydropyrrolo[3,4-b]pyrrol-1(2H)-yl)-N-(propan-2-yl)-5H-pyrrolo[2,3-b]pyrazine-7-carboxamide]
The half-life at 1 μM of the first is 1.7-fold higher: 4.16 h for the first, 2.38 h for the second.

`C=CC(=O)N1CCC(Nc2cnc3[nH]ccc3n2)CC1` [Example 176, 1-[4-(5H-pyrrolo[2,3-b]pyrazin-2-ylamino)piperidin-1-yl]prop-2-en-1-one] and `C=CC(=O)N1CCC(Nc2cnc3[nH]cc(-c4ccc(C)nc4)c3n2)CC1` [Example 199, 1-(4-{[7-(6-methylpyridin-3-yl)-5H-pyrrolo[2,3-b]pyrazin-2-yl]amino}piperidin-1-yl)prop-2-en-1-one] cannot be ordered by half-life at 1 μM: greater than 6 h for the first, greater than 6 h for the second.

`C=CC(=O)N1CCC[C@H]1CNc1cnc2[nH]cc(C(=O)NC(C)C)c2n1` [Example 177, 2-({[(2S)-1-acryloylpyrrolidin-2-yl]methyl}amino)-N-(propan-2-yl)-5H-pyrrolo[2,3-b]pyrazine-7-carboxamide] and `C=CC(=O)N1CC[C@@H](CNc2cnc3[nH]cc(C(=O)NC(C)C)c3n2)C1` [Example 191, 2-({[(3S)-1-acryloylpyrrolidin-3-yl]methyl}amino)-(N-propan-2-yl)-5H-pyrrolo[2,3-b]pyrazine-7-carboxamide] cannot be ordered by half-life at 1 μM: greater than 5.35 h for the first, greater than 6 h for the second.

`C=CC(=O)N[C@H]1C[C@@H](Nc2cnc3[nH]cc(C(=O)NC(C)C)c3n2)C1` [Example 184, 2-{[cis-3-(acryloylamino)cyclobutyl]amino}-N-(propan-2-yl)-5H-pyrrolo[2,3-b]pyrazine-7-carboxamide] and `C=CC(=O)N[C@H]1C[C@H](Nc2cnc3[nH]cc(C(=O)NC(C)C)c3n2)C1` [Example 198, 2-{[trans-3-(acryloylamino)cyclobutyl]amino}-N-(propan-2-yl)-5H-pyrrolo[2,3-b]pyrazine-7-carboxamide] cannot be ordered by half-life at 1 μM: greater than 6 h for the first, greater than 6 h for the second.

Compared with `C=CC(=O)N(C)C1CN(c2cnc3[nH]cc(C(=O)NC(C)C)c3n2)C1` [Example 187, 2-{3-[acryloyl(methyl)amino]azetidin-1-yl}-N-(propan-2-yl)-5H-pyrrolo[2,3-b]pyrazine-7-carboxamide], `C=CC(=O)N1CC(Nc2cnc3[nH]cc(C(=O)NC(C)C)c3n2)C1` [Example 188, 2-[(1-acryloylazetidin-3-yl)amino]-N-(propan-2-yl)-5H-pyrrolo[2,3-b]pyrazine-7-carboxamide] is lower in half-life at 1 μM: greater than 6 h for the first, 1.6 h for the second.

`C=CC(=O)N1C[C@@H]2C(Nc3cnc4[nH]cc(C(=O)NC(C)C)c4n3)[C@@H]2C1` (stereo partly drawn) [Example 189, 2-{[(1R,5S,6s)-3-acryloyl-3-azabicyclo[3.1.0]hex-6-yl]amino}-N-(propan-2-yl)-5H-pyrrolo[2,3-b]pyrazine-7-carboxamide] and `C=CC(=O)N1CC[C@@H](Nc2cnc3[nH]cc(C(=O)NC(C)C)c3n2)[C@H](O)C1` [Example 196, 2-{[(3R,4R)-1-acryloyl-3-hydroxypiperidin-4-yl]amino}-N-(propan-2-yl)-5H-pyrrolo[2,3-b]pyrazine-7-carboxamide] cannot be ordered by half-life at 1 μM: greater than 6 h for the first, greater than 6 h for the second.

`C=CC(=O)N1CCC(Nc2cnc3[nH]cc(-c4ccc(F)nc4)c3n2)CC1` [Example 207, 1-(4-{[7-(6-fluoropyridin-3-yl)-5H-pyrrolo[2,3-b]pyrazin-2-yl]amino}piperidin-1-yl)prop-2-en-1-one] and `C=CC(=O)N1CCC(Nc2cnc3[nH]cc(-c4cnc(OC)nc4)c3n2)CC1` [Example 210, 1-(4-{[7-(2-methoxypyrimidin-5-yl)-5H-pyrrolo[2,3-b]pyrazin-2-yl]amino}piperidin-1-yl)prop-2-en-1-one] cannot be ordered by half-life at 1 μM: greater than 6 h for the first, greater than 6 h for the second.

Molecule `C=CC(=O)N1CCC(Oc2cnc3[nH]cc(-c4cnn(C)c4)c3n2)CC1` [Example 218, 1-(4-{[7-(1-methyl-1H-pyrazol-4-yl)-5H-pyrrolo[2,3-b]pyrazin-2-yl]oxy}piperidin-1-yl)prop-2-en-1-one] has a half-life at 1 μM greater than 6 h.
